Here are results for 21 compounds from ChEMBL document CHEMBL1136926 (J Med Chem, 2009).

For assay [1], the target named is T1, Urotensin-2 receptor (Homo sapiens, UniProt Q9UKP6).
T1 sequence (Q9UKP6 whole entry): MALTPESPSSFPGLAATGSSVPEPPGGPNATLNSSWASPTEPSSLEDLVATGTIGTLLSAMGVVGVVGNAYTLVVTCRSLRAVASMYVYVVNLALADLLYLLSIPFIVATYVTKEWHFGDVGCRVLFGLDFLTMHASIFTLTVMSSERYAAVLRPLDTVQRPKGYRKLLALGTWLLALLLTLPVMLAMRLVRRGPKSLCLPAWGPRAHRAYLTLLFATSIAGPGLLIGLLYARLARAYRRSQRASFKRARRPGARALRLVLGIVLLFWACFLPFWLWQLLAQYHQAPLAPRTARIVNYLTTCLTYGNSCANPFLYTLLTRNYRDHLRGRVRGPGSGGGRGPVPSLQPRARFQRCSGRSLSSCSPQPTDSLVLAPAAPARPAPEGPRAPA
Nature of the assay: Displacement of [125I]urotensin-2 from human UT2 receptor expressed in CHO-K1 cells by liquid scintillation counting. Format: cell-based. Background: In a radioligand displacement assay an active substance lowers the binding of a labelled ligand.

Assay [2] deals with T2, Urotensin-2 receptor (Rattus norvegicus, UniProt P49684).
T2 sequence (P49684 whole entry): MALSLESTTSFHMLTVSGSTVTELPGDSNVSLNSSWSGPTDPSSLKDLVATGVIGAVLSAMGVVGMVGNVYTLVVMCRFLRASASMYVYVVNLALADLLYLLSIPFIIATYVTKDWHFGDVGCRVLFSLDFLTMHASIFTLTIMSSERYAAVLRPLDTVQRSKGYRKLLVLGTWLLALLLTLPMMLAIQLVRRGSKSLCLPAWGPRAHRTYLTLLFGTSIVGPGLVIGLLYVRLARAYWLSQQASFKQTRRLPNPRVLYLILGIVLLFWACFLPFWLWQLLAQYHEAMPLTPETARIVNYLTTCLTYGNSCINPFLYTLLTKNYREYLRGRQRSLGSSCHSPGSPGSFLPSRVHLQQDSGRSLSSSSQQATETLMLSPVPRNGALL
Nature of the assay: Agonist activity at UT2 receptor in Albino rat aorta assessed as induction of aortic contraction.

The target in assay [3] is T3, Urotensin-2 receptor (Rattus norvegicus) (UniProt P49684).
T3 sequence (whole entry): T2 sequence (P49684 whole entry)
Nature of the assay: Antagonist activity at UT2 receptor in Albino rat aorta assessed as inhibition of […] aortic contraction. Format: functional, tissue-based.

Positions of bridges follow the written chain, without caps; N, C: chain ends. Non-standard residues stand in square brackets, D forms with d. Residues, ends and D or L forms follow the SMILES beside them. Phe(4-NO2) = N[C@@H](Cc1ccc([N+](=O)[O-])cc1)C(=O)O; Phe(4-Cl) = N[C@@H](Cc1ccc(Cl)cc1)C(=O)O; 1Nal = N[C@@H](Cc1cccc2ccccc12)C(=O)O; 2Nal = N[C@@H](Cc1ccc2ccccc2c1)C(=O)O; Tic = O=C(O)[C@@H]1Cc2ccccc2CN1; Pen = CC(C)(S)[C@H](N)C(=O)O

As a reminder, the Ki is the equilibrium dissociation constant of an inhibitor or competing ligand from its target. High values mean weaker binding, low ones tighter binding. In assay [1], `CC(C)[C@H](NC(=O)[C@@H]1CSSC(C)(C)[C@H](NC(=O)[C@@H](N)Cc2ccc([N+](=O)[O-])cc2)C(=O)N[C@@H](Cc2ccccc2)C(=O)N[C@H](Cc2c[nH]c3ccccc23)C(=O)N[C@@H](CCCN)C(=O)N[C@@H](Cc2ccc(O)cc2)C(=O)N1)C(=O)O` had a Ki of 15.8 nM. Broadly, the EC50 is the midpoint of the concentration-response curve. `CC(C)[C@H](NC(=O)[C@@H]1CSSC(C)(C)[C@H](NC(=O)[C@@H](N)Cc2ccc3ccccc3c2)C(=O)N[C@@H](Cc2ccccc2)C(=O)N[C@@H](Cc2c[nH]c3ccccc23)C(=O)N[C@@H](CCCCN)C(=O)N[C@@H](Cc2ccc(O)cc2)C(=O)N1)C(=O)O` (H-[2Nal][Pen]FWKYCV-OH; disulfide 2-7) showed a Ki in assay [1] of 6.46 nM. For the same compound, in assay [2], the EC50 is 5.25 nM. `CC(C)[C@H](NC(=O)[C@@H]1CSSC(C)(C)[C@H](NC(=O)[C@@H]2Cc3ccccc3CN2)C(=O)N[C@@H](Cc2ccccc2)C(=O)N[C@H](Cc2c[nH]c3ccccc23)C(=O)N[C@@H](CCCN)C(=O)N[C@@H](Cc2ccc(O)cc2)C(=O)N1)C(=O)O` had a Ki in assay [1] of 9.33 nM. The pKb is the Kb on a negative log10 scale, so that one unit is a factor of ten. As for `CC(C)[C@H](NC(=O)[C@@H]1CSSC(C)(C)[C@@H](NC(=O)[C@@H](N)Cc2ccccc2)C(=O)N[C@@H](Cc2ccccc2)C(=O)N[C@H](Cc2c[nH]c3ccccc23)C(=O)N[C@@H](CCCN)C(=O)N[C@@H](Cc2ccc(O)cc2)C(=O)N1)C(=O)O`, the pKb in assay [3] came out at 8.68. With `CC(C)[C@H](NC(=O)[C@@H]1CSSC(C)(C)[C@H](NC(=O)[C@@H](N)Cc2ccccc2)C(=O)N[C@@H](Cc2ccccc2)C(=O)N[C@@H](Cc2c[nH]c3ccccc23)C(=O)N[C@@H](CCCCN)C(=O)N[C@@H](Cc2ccc(O)cc2)C(=O)N1)C(=O)O` (H-F[Pen]FWKYCV-OH; disulfide 2-7), in assay [1], the Ki was 0.282 nM. Besides, the EC50 in assay [2] is 0.661 nM. `CC(C)[C@H](NC(=O)[C@@H]1CSSC(C)(C)[C@H](NC(=O)[C@@H](N)Cc2ccc(Cl)cc2)C(=O)N[C@@H](Cc2ccccc2)C(=O)N[C@H](Cc2c[nH]c3ccccc23)C(=O)N[C@@H](CCCN)C(=O)N[C@@H](Cc2ccc(O)cc2)C(=O)N1)C(=O)O`: the Ki in assay [1] is 9.55 nM.

Take `CC(C)[C@H](NC(=O)[C@@H]1CSSC[C@H](NC(=O)[C@H](CC(=O)O)NC(=O)[C@@H]2CCCN2C(=O)[C@@H](NC(=O)[C@@H](N)CCC(=O)O)[C@@H](C)O)C(=O)N[C@@H](Cc2ccccc2)C(=O)N[C@@H](Cc2c[nH]c3ccccc23)C(=O)N[C@@H](CCCCN)C(=O)N[C@@H](Cc2ccc(O)cc2)C(=O)N1)C(=O)O` [HUMAN UROTENSIN II]: the EC50 in assay [2] was 5.01 nM. Turning to `CC(C)[C@H](NC(=O)[C@@H]1CSSC(C)(C)[C@H](NC(=O)[C@@H]2Cc3ccccc3CN2)C(=O)N[C@@H](Cc2ccccc2)C(=O)N[C@@H](Cc2c[nH]c3ccccc23)C(=O)N[C@@H](CCCCN)C(=O)N[C@@H](Cc2ccc(O)cc2)C(=O)N1)C(=O)O` (H-[Tic][Pen]FWKYCV-OH; disulfide 2-7), in assay [1], the affinity, expressed as Ki, was 2.63 nM. For the same compound, in assay [2], the EC50 is 1.35 nM. Consider `CC(C)[C@H](NC(=O)[C@@H]1CSSC(C)(C)[C@H](NC(=O)[C@@H](N)Cc2cccc3ccccc23)C(=O)N[C@@H](Cc2ccccc2)C(=O)N[C@@H](Cc2c[nH]c3ccccc23)C(=O)N[C@@H](CCCCN)C(=O)N[C@@H](Cc2ccc(O)cc2)C(=O)N1)C(=O)O` (H-[1Nal][Pen]FWKYCV-OH; disulfide 2-7), for which the Ki in assay [1] was 26.3 nM. Moreover, in assay [2], the EC50 is 102 nM. In the case of `CC(C)[C@H](NC(=O)[C@@H]1CSSC(C)(C)[C@@H](NC(=O)[C@H](C)N)C(=O)N[C@@H](Cc2ccccc2)C(=O)N[C@H](Cc2c[nH]c3ccccc23)C(=O)N[C@@H](CCCN)C(=O)N[C@@H](Cc2ccc(O)cc2)C(=O)N1)C(=O)O`, the pKb in assay [3] amounted to 7.84.

In assay [1], `CC(C)[C@H](NC(=O)[C@@H]1CSSC(C)(C)[C@H](NC(=O)[C@@H](N)Cc2ccccc2)C(=O)N[C@@H](Cc2ccccc2)C(=O)N[C@H](Cc2c[nH]c3ccccc23)C(=O)N[C@@H](CCCN)C(=O)N[C@@H](Cc2ccc(O)cc2)C(=O)N1)C(=O)O` had a Ki of 19.5 nM. For `CC(C)[C@H](NC(=O)[C@@H]1CSSC(C)(C)[C@H](NC(=O)[C@@H](N)CC(=O)O)C(=O)N[C@@H](Cc2ccccc2)C(=O)N[C@@H](Cc2c[nH]c3ccccc23)C(=O)N[C@@H](CCCCN)C(=O)N[C@@H](Cc2ccc(O)cc2)C(=O)N1)C(=O)O` (H-D[Pen]FWKYCV-OH; disulfide 2-7), in assay [2], the EC50 is 0.251 nM.

`CC(C)[C@H](NC(=O)[C@@H]1CSSC(C)(C)[C@H](NC(=O)[C@@H](N)Cc2ccc([N+](=O)[O-])cc2)C(=O)N[C@@H](Cc2ccccc2)C(=O)N[C@@H](Cc2c[nH]c3ccccc23)C(=O)N[C@@H](CCCCN)C(=O)N[C@@H](Cc2ccc(O)cc2)C(=O)N1)C(=O)O` (H-[Phe(4-NO2)][Pen]FWKYCV-OH; disulfide 2-7): the Ki in assay [1] is 13.5 nM. In addition, in assay [2], the EC50 is 72.4 nM. On to `CC(C)[C@H](NC(=O)[C@@H]1CSSC(C)(C)[C@H](NC(=O)[C@@H](N)Cc2ccc3ccccc3c2)C(=O)N[C@@H](Cc2ccccc2)C(=O)N[C@H](Cc2c[nH]c3ccccc23)C(=O)N[C@@H](CCCN)C(=O)N[C@@H](Cc2ccc(O)cc2)C(=O)N1)C(=O)O`, for which the Ki in assay [1] is 11.7 nM. The compound `CC(C)[C@H](NC(=O)[C@@H]1CSSC(C)(C)[C@H](NC(=O)[C@@H](N)CCCCN)C(=O)N[C@@H](Cc2ccccc2)C(=O)N[C@@H](Cc2c[nH]c3ccccc23)C(=O)N[C@@H](CCCCN)C(=O)N[C@@H](Cc2ccc(O)cc2)C(=O)N1)C(=O)O` (H-K[Pen]FWKYCV-OH; disulfide 2-7) gave a Ki in assay [1] of 9.33 nM. Moreover, the EC50 in assay [2] was 6.03 nM.

For `CC(C)[C@H](NC(=O)[C@@H]1CSSC[C@H](NC(=O)[C@@H](N)CC(=O)O)C(=O)N[C@@H](Cc2ccccc2)C(=O)N[C@@H](Cc2c[nH]c3ccccc23)C(=O)N[C@@H](CCCCN)C(=O)N[C@@H](Cc2ccc(O)cc2)C(=O)N1)C(=O)O` (H-DCFWKYCV-OH; disulfide 2-7), the EC50 in assay [2] was 2.51 nM. In assay [1], `CC(C)[C@H](NC(=O)[C@@H]1CSSC(C)(C)[C@H](NC(=O)[C@H](C)N)C(=O)N[C@@H](Cc2ccccc2)C(=O)N[C@H](Cc2c[nH]c3ccccc23)C(=O)N[C@@H](CCCN)C(=O)N[C@@H](Cc2ccc(O)cc2)C(=O)N1)C(=O)O` gave a Ki of 1.66 nM. Regarding `CC(C)[C@H](NC(=O)[C@@H]1CSSC(C)(C)[C@H](NC(=O)[C@@H](N)Cc2ccc(Cl)cc2)C(=O)N[C@@H](Cc2ccccc2)C(=O)N[C@@H](Cc2c[nH]c3ccccc23)C(=O)N[C@@H](CCCCN)C(=O)N[C@@H](Cc2ccc(O)cc2)C(=O)N1)C(=O)O` (H-[Phe(4-Cl)][Pen]FWKYCV-OH; disulfide 2-7), in assay [1], the Ki is 0.891 nM. In assay [2], the EC50 is 1.38 nM. In turn, `CC(C)[C@H](NC(=O)[C@@H]1CSSC(C)(C)[C@H](NC(=O)[C@@H](N)CCCCN)C(=O)N[C@@H](Cc2ccccc2)C(=O)N[C@H](Cc2c[nH]c3ccccc23)C(=O)N[C@@H](CCCN)C(=O)N[C@@H](Cc2ccc(O)cc2)C(=O)N1)C(=O)O` showed a Ki in assay [1] of 219 nM. This lies in the sub-micromolar range. Same read-out and setting: with `CC(C)[C@H](NC(=O)[C@@H]1CSSC(C)(C)[C@H](NC(=O)[C@@H](N)Cc2cccc3ccccc23)C(=O)N[C@@H](Cc2ccccc2)C(=O)N[C@H](Cc2c[nH]c3ccccc23)C(=O)N[C@@H](CCCN)C(=O)N[C@@H](Cc2ccc(O)cc2)C(=O)N1)C(=O)O` the figure was 3.89 nM. As to `CC(C)[C@H](NC(=O)[C@@H]1CSSC(C)(C)[C@H](NC(=O)[C@H](C)N)C(=O)N[C@@H](Cc2ccccc2)C(=O)N[C@@H](Cc2c[nH]c3ccccc23)C(=O)N[C@@H](CCCCN)C(=O)N[C@@H](Cc2ccc(O)cc2)C(=O)N1)C(=O)O`, the Ki in assay [1] is 0.794 nM. In addition, the EC50 in assay [2] was 9.12 nM.
